In ChEMBL document CHEMBL1151069 (Bioorg Med Chem Lett, 1996):
Positions of bridges follow the written chain, without caps; N, C: chain ends. Residues, ends and D or L forms follow the SMILES beside them.

Experiments:
Endothelin-1 receptor = molecular target: T1, Endothelin-1 receptor (Bos taurus, UniProt P21450); test: Binding activity against Endothelin A receptor expressed from bovine lung membrane preparation; format: tissue-based
T1 sequence (P21450 whole entry): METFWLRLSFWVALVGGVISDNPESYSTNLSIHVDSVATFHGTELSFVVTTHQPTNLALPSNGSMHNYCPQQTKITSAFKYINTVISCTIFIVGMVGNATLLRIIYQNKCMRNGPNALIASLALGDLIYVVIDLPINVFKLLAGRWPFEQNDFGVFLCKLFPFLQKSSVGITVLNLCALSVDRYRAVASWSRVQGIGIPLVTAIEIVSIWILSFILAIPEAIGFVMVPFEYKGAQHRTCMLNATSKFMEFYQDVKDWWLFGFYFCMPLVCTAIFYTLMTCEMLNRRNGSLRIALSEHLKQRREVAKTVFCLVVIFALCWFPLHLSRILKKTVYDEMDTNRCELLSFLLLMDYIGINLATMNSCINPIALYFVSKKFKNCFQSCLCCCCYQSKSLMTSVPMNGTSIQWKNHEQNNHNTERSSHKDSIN

[1] = molecular target: T2, Endothelin receptor type B (Bos taurus, UniProt P28088); test: Binding activity against Endothelin B receptor expressed from bovine cerebellum membrane preparation; format: tissue-based
T2 sequence (P28088 whole entry): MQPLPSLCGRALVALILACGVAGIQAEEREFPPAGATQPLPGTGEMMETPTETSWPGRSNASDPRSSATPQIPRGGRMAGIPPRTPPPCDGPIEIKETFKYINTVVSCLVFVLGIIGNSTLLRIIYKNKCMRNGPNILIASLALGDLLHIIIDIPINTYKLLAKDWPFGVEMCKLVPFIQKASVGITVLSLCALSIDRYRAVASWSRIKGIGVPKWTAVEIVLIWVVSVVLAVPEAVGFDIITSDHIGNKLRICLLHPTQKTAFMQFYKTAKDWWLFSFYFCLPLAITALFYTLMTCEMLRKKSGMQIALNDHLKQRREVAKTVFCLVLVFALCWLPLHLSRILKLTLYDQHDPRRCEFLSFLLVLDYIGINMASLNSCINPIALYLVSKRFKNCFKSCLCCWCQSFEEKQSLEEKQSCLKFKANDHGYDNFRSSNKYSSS

| Compound | IC50 (Endothelin-1 receptor) [nM] | IC50 [1] [nM] |
| --- | --- | --- |
| C[C@@H]1NC(=O)[C@@H]([C@@H](C)O)NC(=O)CNC(=O)[C@@H](Cc2cnc[nH]2)NC(=O)[C@H](Cc2c[nH]c3ccccc23)NC(=O)[C@@H](CC(N)=O)NC(=O)CNC(=O)C[C@H](C(=O)N[C@@H](Cc2c[nH]c3ccccc23)C(=O)N[C@@H](Cc2ccccc2)C(=O)N[C@@H](Cc2ccccc2)C(=O)N[C@@H](CC(N)=O)C(=O)N[C@@H](Cc2ccc(O)cc2)C(=O)N[C@@H](Cc2ccc(O)cc2)C(=O)N[C@@H](Cc2c[nH]c3ccccc23)C(=O)O)NC(=O)[C@H]2CCCN2C1=O | > 98 | – |
| C[C@@H]1NC(=O)[C@H]([C@@H](C)O)NC(=O)CNC(=O)[C@H](Cc2c[nH]cn2)NC(=O)[C@H](Cc2c[nH]c3ccccc23)NC(=O)[C@H](CC(N)=O)NC(=O)CNC(=O)C[C@@H](C(=O)N[C@@H](Cc2c[nH]c3ccccc23)C(=O)N[C@@H](Cc2ccccc2)C(=O)N[C@@H](Cc2ccccc2)C(=O)N[C@@H](CC(N)=O)C(=O)N[C@@H](Cc2ccc(O)cc2)C(=O)N[C@@H](Cc2ccc(O)cc2)C(=O)N[C@@H](Cc2ccc3ccccc3c2)C(=O)O)NC(=O)[C@@H]2CCCN2C1=O | – | 6.3 |
| C[C@@H]1NC(=O)[C@@H]([C@@H](C)O)NC(=O)CNC(=O)[C@@H](Cc2c[nH]cn2)NC(=O)[C@H](Cc2c[nH]c3ccccc23)NC(=O)[C@@H](CC(N)=O)NC(=O)CNC(=O)C[C@H](C(=O)N[C@@H](Cc2c[nH]c3ccccc23)C(=O)N[C@@H](Cc2ccccc2)C(=O)N[C@@H](Cc2ccccc2)C(=O)N[C@@H](CC(N)=O)C(=O)N[C@@H](Cc2ccc(O)cc2)C(=O)N[C@H](Cc2ccc(O)cc2)C(=O)N[C@@H](Cc2c[nH]c3ccccc23)C(=O)O)NC(=O)[C@H]2CCCN2C1=O | > 98 | – |
| C[C@@H]1NC(=O)[C@H]([C@@H](C)O)NC(=O)CNC(=O)[C@H](Cc2c[nH]cn2)NC(=O)[C@H](Cc2c[nH]c3ccccc23)NC(=O)[C@H](CC(N)=O)NC(=O)CNC(=O)C[C@@H](C(=O)N[C@@H](Cc2c[nH]c3ccccc23)C(=O)N[C@@H](Cc2ccccc2)C(=O)N[C@@H](Cc2ccccc2)C(=O)N[C@@H](CC(N)=O)C(=O)N[C@@H](Cc2ccc(O)cc2)C(=O)N[C@@H](Cc2ccc(O)cc2)C(=O)NCC(=O)O)NC(=O)[C@@H]2CCCN2C1=O (GNWHGTAPDWFFNYYG-OH; lactam N-9) | > 520 | 120 |
